Reference: PubChem BioAssay AID330 (DTP/NCI, 2004)
“And” between values parts separate entries of the source, which are not always exact repeats. Equal values may be shown once. Toxic doses and inconclusive results are not listed.

Test system: P388 leukemia ip, CD2F1 mice, survival T/C
Test: NCI In Vivo Anticancer Drug Screen. Data for tumor model P388 Leukemia (intraperitoneal) in CD2F1 (CDF1) mice
Details: endpoint: median survival time, higher = longer survival
How it was run: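 Mice carrying the transplanted tumor received test compound or vehicle. Survival was recorded in each group, and the value is the treated-group measurement divided by that of the vehicle-treated control group.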

[1] = dose: 60.0 mg/kg/injection, schedule: Q01DX005 (ip), vehicle: saline with Tween-80
[2] = dose: 120.0 mg/kg/injection, schedule: Q01DX005 (ip), vehicle: saline with Tween-80
[3] = dose: 12.5 mg/kg/injection, schedule: Q01DX009 (ip), vehicle: saline with Tween-80
[4] = dose: 25.0 mg/kg/injection, schedule: Q01DX009 (ip), vehicle: saline with Tween-80
[5] = dose: 60.0 mg/kg/injection, schedule: Q01DX005 (ip), vehicle: saline
[6] = dose: 120.0 mg/kg/injection, schedule: Q01DX005 (ip), vehicle: saline
[7] = dose: 240.0 mg/kg/injection, schedule: Q01DX005 (ip), vehicle: saline
[8] = dose: 50.0 mg/kg/injection, schedule: Q01DX009 (ip), vehicle: Klucel (hydroxypropylcellulose) (HPC)
[9] = dose: 100.0 mg/kg/injection, schedule: Q01DX009 (ip), vehicle: Klucel (hydroxypropylcellulose) (HPC)
[10] = dose: 200.0 mg/kg/injection, schedule: Q01DX009 (ip), vehicle: Klucel (hydroxypropylcellulose) (HPC)
[11] = dose: 50.0 mg/kg/injection, schedule: Q01DX005 (ip), vehicle: Klucel (hydroxypropylcellulose) (HPC)
[12] = dose: 100.0 mg/kg/injection, schedule: Q01DX005 (ip), vehicle: Klucel (hydroxypropylcellulose) (HPC)
[13] = dose: 200.0 mg/kg/injection, schedule: Q01DX005 (ip), vehicle: Klucel (hydroxypropylcellulose) (HPC)
[14] = dose: 100.0 mg/kg/injection, schedule: Q04DX003 (ip), vehicle: Klucel (hydroxypropylcellulose) (HPC)
[15] = dose: 200.0 mg/kg/injection, schedule: Q04DX003 (ip), vehicle: Klucel (hydroxypropylcellulose) (HPC)
[16] = dose: 400.0 mg/kg/injection, schedule: Q04DX003 (ip), vehicle: Klucel (hydroxypropylcellulose) (HPC)
[17] = dose: 240.0 mg/kg/injection, schedule: Q01DX005 (ip), vehicle: saline with Tween-80
[18] = dose: 25.0 mg/kg/injection, schedule: Q01DX009 (ip), vehicle: Klucel (hydroxypropylcellulose) (HPC)

With `OCC(O)Cn1cnc2c(NO)ncnc21` (stereo not given) the T/C (dose: 60.0 mg/kg/injection, schedule: Q01DX005 (ip), vehicle: Klucel (hydroxypropylcellulose) (HPC)) was 101 % of control, the T/C (dose: 120.0 mg/kg/injection, schedule: Q01DX005 (ip), vehicle: Klucel (hydroxypropylcellulose) (HPC)) was 95 % of control and the T/C (dose: 240.0 mg/kg/injection, schedule: Q01DX005 (ip), vehicle: Klucel (hydroxypropylcellulose) (HPC)) was 100 % of control.
In the case of `CC(NC(=O)C(CCCCN)N(C(=O)OCc1ccccc1)C(=O)OCc1ccccc1)C(=O)O` (stereo not given) (tested in a mixture with another compound), the T/C (dose: 50.0 mg/kg/injection, schedule: Q01DX005 (ip), vehicle: suspension in saline) is reported as 111 % of control, the T/C (dose: 100.0 mg/kg/injection, schedule: Q01DX005 (ip), vehicle: suspension in saline) is reported as 111 % of control and the T/C (dose: 200.0 mg/kg/injection, schedule: Q01DX005 (ip), vehicle: suspension in saline) is reported as 110 % of control.
`COc1ccc(CCn2cnn3c(=O)c4ccccc4nc3c2=O)cc1OC` was tested, and the T/C [1] was 99 % of control and the T/C [2] was 92 % of control.
With `CCN(CC)CCOC(=O)C1c2ccccc2-c2ccccc21` the T/C (dose: 50.0 mg/kg/injection, schedule: Q01DX005 (ip), vehicle: saline + Tween-80 + alcohol) was 99 % of control, the T/C (dose: 100.0 mg/kg/injection, schedule: Q01DX005 (ip), vehicle: saline + Tween-80 + alcohol) was 95 % of control and the T/C (dose: 200.0 mg/kg/injection, schedule: Q01DX005 (ip), vehicle: saline + Tween-80 + alcohol) was 103 % of control.
With `CCOc1ccc(N=c2ccn3ccccc3c2)cc1` the T/C (dose: 6.25 mg/kg/injection, schedule: Q01DX009 (ip), vehicle: saline with Tween-80) was 102 % of control, the T/C [3] was 110 % of control and the T/C [4] was 111 % of control.
For `Cc1cc2oc3c(ccc(=O)n3C)c(=O)c2c(C)c1Cl`, the T/C (dose: 50.0 mg/kg/injection, schedule: Q01DX005 (ip), vehicle: saline with Tween-80) was 104 % of control, the T/C (dose: 100.0 mg/kg/injection, schedule: Q01DX005 (ip), vehicle: saline with Tween-80) was 113 % of control and the T/C (dose: 200.0 mg/kg/injection, schedule: Q01DX005 (ip), vehicle: saline with Tween-80) was 88 % of control.
With `CCc1cc(CN2CCN(CCO)CC2)c(O)c(CN2CCN(CCO)CC2)c1` the T/C [5] was 102 % of control, the T/C [6] was 97 % of control and the T/C [7] was 99 % of control.
`CCCCC(=O)/C=C/c1ccc(Cl)c(Cl)c1` was tested, and the T/C [8] was 98 % of control, the T/C [9] was 90 % of control and the T/C [10] was 95 % of control.
`O=C(/C=C/C=C/c1ccccc1)CCc1ccccc1` was tested, and the T/C (dose: 25.0 mg/kg/injection, schedule: Q01DX005 (ip), vehicle: Klucel (hydroxypropylcellulose) (HPC)) was 95 % of control, the T/C [11] was 101 % of control and the T/C [12] was 100 % of control. The T/C [13] was 92 % of control.
With `Cc1nc2[nH]ncc2c(=O)n1-c1ccccc1Cl` the T/C [11] was 101 % of control, the T/C [12] was 101 % of control and the T/C [13] was 99 % of control.
For `Cn1nnc(-c2ccc([N+](=O)[O-])cc2)n1`, the T/C [14] was 105 % of control, the T/C [15] was 103 % of control and the T/C [16] was 103 % of control.
For `O=C(n1ccnc1)C(F)(F)C(F)(F)F`, the T/C [5] was 95 % of control, the T/C [6] was 101 % of control and the T/C [7] was 96 % of control.
In the case of `CSC1C(=O)Nc2ccc([N+](=O)[O-])cc21` (stereo not given), the T/C [4] is reported as 96 % of control, the T/C (dose: 50.0 mg/kg/injection, schedule: Q01DX009 (ip), vehicle: saline with Tween-80) is reported as 105 % of control and the T/C (dose: 100.0 mg/kg/injection, schedule: Q01DX009 (ip), vehicle: saline with Tween-80) is reported as 113 % of control.
`NC(=O)c1cc([N+](=O)[O-])ccc1N=NN(CCCl)Cc1ccccc1` was tested, and the T/C [14] was 111 % of control, the T/C [15] was 122 % of control and the T/C [16] was 162 % of control.
In the case of `CCCCCCC(/C=C/c1ccc(Cl)c(Cl)c1)=N\NC(=O)C[N+](C)(C)C`, the T/C [3] is reported as 100 % of control, the T/C [4] is reported as 103 % of control and the T/C (dose: 50.0 mg/kg/injection, schedule: Q01DX009 (ip), vehicle: saline) is reported as 98 % of control.
For `Cc1cc(O)c2c(c1)C(=O)c1c(-c3ccc(O)c4c3C(=O)c3c(O)c(C)cc(O)c3C4=O)ccc(O)c1C2=O`, the T/C (dose: 3.0 mg/kg/injection, schedule: Q01DX005 (ip), vehicle: Klucel (hydroxypropylcellulose) (HPC)) was 95 % of control, the T/C (dose: 6.0 mg/kg/injection, schedule: Q01DX005 (ip), vehicle: Klucel (hydroxypropylcellulose) (HPC)) was 95 % of control and the T/C (dose: 12.0 mg/kg/injection, schedule: Q01DX005 (ip), vehicle: Klucel (hydroxypropylcellulose) (HPC)) was 93 % of control. The T/C (dose: 24.0 mg/kg/injection, schedule: Q01DX005 (ip), vehicle: Klucel (hydroxypropylcellulose) (HPC)) was 86 % of control.
`CSc1nc(SC)c2nc(SC)sc2n1` was tested, and the T/C (dose: 50.0 mg/kg/injection, schedule: Q01DX001 (ip), vehicle: saline with Tween-80) was 90 % of control, the T/C (dose: 100.0 mg/kg/injection, schedule: Q01DX001 (ip), vehicle: saline with Tween-80) was 88 % of control and 90 % of control and the T/C (dose: 200.0 mg/kg/injection, schedule: Q01DX001 (ip), vehicle: saline with Tween-80) was 90 % of control. The T/C (dose: 400.0 mg/kg/injection, schedule: Q01DX001 (ip), vehicle: saline with Tween-80) was 87 % of control.
`Cn1c(=S)[nH]c2sc3c(c2c1=O)CCC3` was tested, and the T/C [1] was 96 % of control, the T/C [2] was 93 % of control and the T/C [17] was 89 % of control.
`CC(Br)(C(Br)c1ccccc1)[N+](=O)[O-]` (stereo not given) was tested, and the T/C [18] was 110 % of control and the T/C [8] was 108 % of control.
With `COC1/C=C\OC2(C)Oc3c(C)c(O)c4c(O)c(c(CN(C)CCO)c(O)c4c3C2=O)NC(=O)/C(C)=C\C=C/C(C)C(O)C(C)C(O)C(C)C(OC(C)=O)C1C` (stereo not given) the T/C (dose: 12.5 mg/kg/injection, schedule: Q01DX009 (ip), vehicle: Klucel (hydroxypropylcellulose) (HPC)) was 86 % of control, the T/C [18] was 117 % of control and the T/C [8] was 118 % of control. For the same molecule, the T/C [9] was 111 % of control, the T/C [10] was 104 % of control and the T/C (dose: 400.0 mg/kg/injection, schedule: Q01DX009 (ip), vehicle: Klucel (hydroxypropylcellulose) (HPC)) was 96 % of control.
`[CH3][Sn]([CH3])([Cl])[O][Sn]([CH3])([CH3])[Cl]` was tested, and the T/C (dose: 1.56 mg/kg/injection, schedule: Q01DX009 (ip), vehicle: saline) was 115 % of control, the T/C (dose: 3.12 mg/kg/injection, schedule: Q01DX009 (ip), vehicle: saline) was 109 % of control and 118 % of control and the T/C (dose: 6.25 mg/kg/injection, schedule: Q01DX009 (ip), vehicle: saline) was 118 % of control and 123 % of control. The T/C (dose: 12.5 mg/kg/injection, schedule: Q04DX003 (ip), vehicle: saline) was 116 % of control, the T/C (dose: 25.0 mg/kg/injection, schedule: Q04DX003 (ip), vehicle: saline) was 124 % of control and the T/C (dose: 50.0 mg/kg/injection, schedule: Q04DX003 (ip), vehicle: saline) was 109 % of control.
With `Clc1cccc(Cl)c1C(Nc1nncs1)Nc1nncs1` the T/C (dose: 50.0 mg/kg/injection, schedule: Q04DX002 (ip), vehicle: saline with Tween-80) was 124 % of control, the T/C (dose: 200.0 mg/kg/injection, schedule: Q04DX002 (ip), vehicle: saline with Tween-80) was 162 % of control and 174 % of control and the T/C (dose: 400.0 mg/kg/injection, schedule: Q04DX002 (ip), vehicle: saline with Tween-80) was 186 % of control and 192 % of control.
In the case of `CCCCCCCCCCCCCCCCOCC(COP(=O)([O-])OCC[N+](C)(C)C)OCCCCCCCCCCCCCCCC` (stereo not given), the T/C [1] is reported as 97 % of control, the T/C [2] is reported as 100 % of control and the T/C [17] is reported as 104 % of control.
`CC1[C@@H]2C[C@@H]3O[C@@]34[C@H]3CCC5Cc6nc7c(nc6C[C@@]5(C)C3(O)CC(=O)[C@@]24CO[C@]12OC(C)(C)CC2O)CC1CC[C@@H]2C3=C[C@H]4O[C@@]5(O[C@@](C)(CO)C[C@@H]5O)C(C)[C@@]4(O)[C@]3(C)[C@@H](O)CC2[C@]1(C)C7` (stereo not given in full) was tested, and the T/C (dose: 12.5 micrograms/kg/injection, schedule: Q01DX009 (ip), vehicle: saline + alcohol) was 107 % of control, the T/C (dose: 25.0 micrograms/kg/injection, schedule: Q01DX009 (ip), vehicle: saline + alcohol) was 109 % of control and the T/C (dose: 50.0 micrograms/kg/injection, schedule: Q01DX009 (ip), vehicle: saline + alcohol) was 114 % of control. For the same molecule, the T/C (dose: 100.0 micrograms/kg/injection, schedule: Q01DX009 (ip), vehicle: saline + alcohol) was 116 % of control.
